From ChEMBL document CHEMBL5291721, “A preclinical secondary pharmacology resource illuminates target-adverse drug reaction associations of marketed drugs” (Nat Commun, 2023)

Biological target: T1, Substance-K receptor (Homo sapiens, UniProt P21452)
T1 sequence (P21452 whole entry): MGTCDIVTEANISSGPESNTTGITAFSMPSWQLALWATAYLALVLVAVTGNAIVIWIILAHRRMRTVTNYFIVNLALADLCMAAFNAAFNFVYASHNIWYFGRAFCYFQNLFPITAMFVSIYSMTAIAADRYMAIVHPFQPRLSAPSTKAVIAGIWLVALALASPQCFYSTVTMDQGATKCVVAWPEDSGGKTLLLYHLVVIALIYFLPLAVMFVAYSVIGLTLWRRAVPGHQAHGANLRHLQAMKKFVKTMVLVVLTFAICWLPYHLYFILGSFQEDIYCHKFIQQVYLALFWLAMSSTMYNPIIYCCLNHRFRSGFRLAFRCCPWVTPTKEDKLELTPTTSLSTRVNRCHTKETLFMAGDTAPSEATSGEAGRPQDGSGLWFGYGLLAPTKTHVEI
Note: assay procedure not described here.

In the case of `N=C(N)NC(=O)c1nc(Cl)c(N)nc1N` [AMILORIDE], the AC50 is reported as > 10 µM.
